The text below walks through data of ChEMBL document CHEMBL5316267, “Subnanomolar Affinity and Selective Antagonism at α7 Nicotinic Receptor by Combined Modifications of 2-Triethylammonium Ethyl Ether of 4-Stilbenol (MG624)” (J Med Chem, 2023).

Assay [1] deals with Neuronal acetylcholine receptor; alpha4/beta2 (Homo sapiens, UniProt P17787+P43681). Put plainly: Displacement of [3H]-Epibatidine from alpha4beta2 nAChR (unknown origin) expressed in HEK293 cell membrane assessed as inhibition constant by beta counter method. It counts as cell membranes.
Assay [2] addresses Neuronal acetylcholine receptor; alpha9/alpha10 (Homo sapiens) (UniProt Q9UGM1+Q9GZZ6). Put plainly: Partial agonist activity at human alpha9alpha10 nAChR expressed in acetylcholine-induced Xenopus laevis oocytes assessed as residual activity treated for 1 sec followed by acetylcholine stimulation for 1 min post-compound treatment at holding potential of -70 mV by two electrode voltage-clamp assay. In kind it is cell-based. The note with it: Oocyte, time 61.0 sec. A general note: Two-electrode voltage clamp holds a large cell at a set potential and records current.

Assay [3] concerns the target Neuronal acetylcholine receptor; alpha3/beta4 (Homo sapiens, UniProt P30926+P32297). Kind of assay: Displacement of [3H]-Epibatidine from alpha3beta4 nAChR (unknown origin) expressed in SH-EP1 cell membrane assessed as inhibition constant by beta counter method. In kind it is cell membranes.
The target of assay [4] is Neuronal acetylcholine receptor subunit alpha-7 (Homo sapiens) (UniProt P36544). Put plainly: Antagonist activity at human alpha7 nAChR expressed in acetylcholine-induced Xenopus laevis oocytes treated for 1 sec followed by acetylcholine stimulation 1 min post-compound treatment at holding potential of -70 mV by two electrode voltage-clamp assay. The conditions noted are these: Oocyte, filed as antagonist, time 61.0 sec. It counts as cell-based.

The structures appear in SMILES notation. Active and inactive are the calls of the source. No cut-off for these calls is given here.

Usually Ki stands for a dissociation constant, usually derived from enzyme kinetics or from competition with a known ligand.

Sequence of Neuronal acetylcholine receptor; alpha3/beta4 (P30926 whole entry): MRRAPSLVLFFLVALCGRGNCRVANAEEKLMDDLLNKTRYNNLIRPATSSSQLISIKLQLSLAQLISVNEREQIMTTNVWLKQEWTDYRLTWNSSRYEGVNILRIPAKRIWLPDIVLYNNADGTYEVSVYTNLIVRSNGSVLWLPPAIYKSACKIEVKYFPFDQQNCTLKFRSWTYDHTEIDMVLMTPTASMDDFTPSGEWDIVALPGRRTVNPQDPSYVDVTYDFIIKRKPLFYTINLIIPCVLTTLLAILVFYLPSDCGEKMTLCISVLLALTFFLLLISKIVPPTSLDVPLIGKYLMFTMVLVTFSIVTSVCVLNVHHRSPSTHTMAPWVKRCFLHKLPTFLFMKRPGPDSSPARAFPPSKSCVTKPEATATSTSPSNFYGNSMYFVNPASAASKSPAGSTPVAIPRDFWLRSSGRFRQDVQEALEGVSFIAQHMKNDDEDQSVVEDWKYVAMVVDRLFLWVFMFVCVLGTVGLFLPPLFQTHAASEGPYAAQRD
Sequence of Neuronal acetylcholine receptor; alpha3/beta4 (P32297 whole entry): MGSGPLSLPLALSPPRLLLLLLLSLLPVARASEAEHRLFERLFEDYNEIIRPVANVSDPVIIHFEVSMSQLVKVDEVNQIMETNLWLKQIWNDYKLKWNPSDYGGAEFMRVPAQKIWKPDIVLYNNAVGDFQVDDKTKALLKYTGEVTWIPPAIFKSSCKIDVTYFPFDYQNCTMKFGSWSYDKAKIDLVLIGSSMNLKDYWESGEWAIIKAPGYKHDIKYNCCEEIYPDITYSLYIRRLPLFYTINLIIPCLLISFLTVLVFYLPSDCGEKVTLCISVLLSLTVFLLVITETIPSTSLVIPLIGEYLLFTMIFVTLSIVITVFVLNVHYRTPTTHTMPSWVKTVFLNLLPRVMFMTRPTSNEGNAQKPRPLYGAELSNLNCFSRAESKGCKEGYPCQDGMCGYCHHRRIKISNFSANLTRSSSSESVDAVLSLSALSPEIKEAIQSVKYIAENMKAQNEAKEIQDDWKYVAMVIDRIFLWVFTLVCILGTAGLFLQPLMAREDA
Sequence of Neuronal acetylcholine receptor; alpha4/beta2 (P17787 whole entry): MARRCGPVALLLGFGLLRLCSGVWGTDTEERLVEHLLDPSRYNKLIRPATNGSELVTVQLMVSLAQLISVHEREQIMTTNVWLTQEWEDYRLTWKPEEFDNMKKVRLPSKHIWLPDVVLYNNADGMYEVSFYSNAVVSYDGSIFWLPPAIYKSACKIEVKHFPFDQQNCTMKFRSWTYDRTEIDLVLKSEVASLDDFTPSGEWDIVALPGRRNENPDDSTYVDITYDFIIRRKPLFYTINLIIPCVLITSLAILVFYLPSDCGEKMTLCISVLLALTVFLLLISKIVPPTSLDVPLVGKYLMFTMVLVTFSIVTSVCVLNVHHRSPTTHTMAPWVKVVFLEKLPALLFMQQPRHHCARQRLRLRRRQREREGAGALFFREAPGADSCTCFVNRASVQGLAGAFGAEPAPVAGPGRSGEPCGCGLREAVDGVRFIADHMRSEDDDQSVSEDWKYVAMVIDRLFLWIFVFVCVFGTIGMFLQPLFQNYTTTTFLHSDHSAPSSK
Sequence of Neuronal acetylcholine receptor; alpha4/beta2 (P43681 whole entry): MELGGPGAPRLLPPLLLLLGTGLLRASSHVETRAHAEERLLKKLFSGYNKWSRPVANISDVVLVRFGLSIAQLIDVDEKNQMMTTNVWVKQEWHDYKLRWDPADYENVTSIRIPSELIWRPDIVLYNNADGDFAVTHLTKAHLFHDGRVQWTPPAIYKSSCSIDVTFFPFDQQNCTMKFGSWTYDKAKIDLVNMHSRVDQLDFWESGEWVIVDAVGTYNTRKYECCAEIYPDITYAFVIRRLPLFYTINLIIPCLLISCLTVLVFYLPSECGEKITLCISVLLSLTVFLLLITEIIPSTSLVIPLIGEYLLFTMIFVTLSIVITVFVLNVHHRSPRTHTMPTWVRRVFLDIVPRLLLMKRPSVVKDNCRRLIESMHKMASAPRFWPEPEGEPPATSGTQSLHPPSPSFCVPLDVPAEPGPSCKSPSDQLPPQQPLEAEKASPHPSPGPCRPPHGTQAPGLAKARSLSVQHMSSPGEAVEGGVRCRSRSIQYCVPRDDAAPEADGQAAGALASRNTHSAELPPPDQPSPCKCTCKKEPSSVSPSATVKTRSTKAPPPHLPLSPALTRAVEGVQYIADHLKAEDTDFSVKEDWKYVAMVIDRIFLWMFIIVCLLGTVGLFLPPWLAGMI
Sequence of Neuronal acetylcholine receptor subunit alpha-7 (Homo sapiens) (P36544 whole entry): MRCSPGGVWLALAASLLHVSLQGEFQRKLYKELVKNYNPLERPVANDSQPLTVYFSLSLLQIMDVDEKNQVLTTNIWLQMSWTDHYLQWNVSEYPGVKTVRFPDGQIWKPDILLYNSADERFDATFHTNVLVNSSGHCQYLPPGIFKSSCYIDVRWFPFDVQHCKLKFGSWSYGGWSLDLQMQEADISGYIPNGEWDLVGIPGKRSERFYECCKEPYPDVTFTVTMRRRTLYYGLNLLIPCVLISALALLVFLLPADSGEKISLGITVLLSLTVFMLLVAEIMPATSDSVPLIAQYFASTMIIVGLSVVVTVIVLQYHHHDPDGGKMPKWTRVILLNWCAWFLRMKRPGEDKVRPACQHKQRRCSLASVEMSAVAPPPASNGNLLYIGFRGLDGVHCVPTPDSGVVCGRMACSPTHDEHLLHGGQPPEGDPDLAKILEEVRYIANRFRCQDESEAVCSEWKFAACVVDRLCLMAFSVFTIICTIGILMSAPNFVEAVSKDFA

Consider `CC[N+](CC)(CC)CCOc1ccc(OCc2ccccc2)cc1`, for which the Ki in assay [1] was 7.5 µM.

For `CC[N+](CC)(CC)CCOc1ccc(CCc2ccccc2)cc1`, the result in assay [2] was inactive.

With `CC[N+](CC)(CC)CCOc1ccc(-c2cccc3ccccc23)cc1`, the Ki in assay [3] came to 0.097 µM.

For the compound `C[N+]1(C)CC[C@@H](Oc2ccc(-c3ccc4[nH]ccc4c3)cc2)C1`, the result in assay [4] was Active.
